Measured values taken from ChEMBL document CHEMBL1136116 (Bioorg Med Chem Lett, 2003).

Tests used:
[1] = target: Cyclin-dependent kinase 2/cyclin E (Homo sapiens, UniProt P24941); assay: Inhibitory activity against Cyclin-dependent kinase 2-cyclin E; assay type: protein-complex assay
[2] = target: Cyclin-dependent kinase 4/cyclin D (Homo sapiens, UniProt P11802); assay: Inhibition of CDK4-Cyclin D; assay type: protein-complex assay
[3] = target: Cyclin-dependent kinase 1/cyclin B (Homo sapiens, UniProt P06493); assay: Inhibition of Cyclin-dependent kinase 1-cyclin B; assay type: protein-complex assay
A2780 = assay: Cytotoxic effect on ovarian cancer cell line (A2780); assay type: functional, cell-based; conditions: Homo sapiens

Row | SMILES | IC50 [1] [nM] | IC50 [2] [nM] | IC50 [3] [nM] | IC50 (A2780) [nM]
1 | CCCCOc1c(C(=O)c2c(F)cc(Br)cc2F)cnc2[nH]ncc12 | 20 | 370 | 17 | 
2 | CCCCOc1c(C(=O)NCC)cnc2[nH]ncc12 | 8100 |  |  | 
3 | CCCCOc1c(C(=O)c2c(F)cc(OC)cc2F)cnc2[nH]ncc12 | 22 | 230 | 7 | 
4 | CCCCOc1c(C(=O)c2c(F)cc(C)cc2F)c[nH]c2nncc1-2 | 9 | 230 | 6 | 760
5 | CCCCOc1c(C(=O)Cc2ccccc2)cnc2[nH]ncc12 | > 1000 |  |  | 
6 | CCCCOc1c(C(=O)c2cccnc2)cnc2[nH]ncc12 | 2400 |  |  | 
7 | CCCCOc1c(C(=O)c2ccco2)cnc2[nH]ncc12 | 180 |  | 280 | 
8 | CCCCOc1c(S(=O)(=O)c2ccccc2)cnc2[nH]ncc12 | 520 |  |  | 
9 | CCCCOc1c([S+]([O-])c2ccccc2)cnc2[nH]ncc12 (stereo not given) | 340 |  |  | 
10 | CCCCOc1c(C(=O)C2CC2)cnc2[nH]ncc12 | 2700 |  |  | 
11 | CCCCOc1c(C(=O)c2ccc(C)cc2)cnc2[nH]ncc12 | 210 |  |  | 
12 | CCCCOc1c(C(=O)Nc2ccccc2)cnc2[nH]ncc12 | 19000 |  |  | 
13 | CCCCOc1c(C(=O)c2c(F)cccc2F)cnc2[nH]ncc12 | 64 | 21000 | 32 | 
14 | CCCCOc1c(C(=O)c2cccc(C)c2)cnc2[nH]ncc12 | 660 |  |  | 
15 | CCCCOc1c(C(=O)OC)cnc2[nH]ncc12 | > 10000 |  |  | 
16 | CCCCOc1c(C(=O)c2nccs2)cnc2[nH]ncc12 | 210 |  | 450 | 
17 | CCCCOc1c(C(=O)c2ccccc2F)cnc2[nH]ncc12 | 36 | 24000 | 360 | 
18 | CCCCOc1c(C(=O)c2c(C)cc(C)cc2C)cnc2[nH]ncc12 | > 1000 |  |  | 
19 | CCCCOc1c(C(C)=O)cnc2[nH]ncc12 | > 1000 |  |  | 
20 | CCCCOc1c(C(=O)c2c(F)cc(Cl)cc2F)cnc2[nH]ncc12 | 27 | 310 | 13 | 
21 | CCCCOc1c(C(=O)c2ccccc2C)cnc2[nH]ncc12 | 730 |  | 410 | 
22 | CCCCOc1c(C(=O)c2cccs2)cnc2[nH]ncc12 | 200 |  | 230 | 
23 | CCCCOc1c(C(=O)c2ccccc2)cnc2[nH]ncc12 [SQ-67563] |  | > 25000 |  | 
